From paper PMC2702710 (The Journal of organic chemistry, 2009)

Key:
cancer cells = conditions: cited from earlier work
Icmt [1] = target: T1, Icmt (Homo sapiens, UniProt O60725); assay: Vapor diffusion assay; type: biochemical; conditions: for IC50: read-out: Human Icmt IC50, 25 μM AFC, 20 μM 14C-SAM, 30 min at 30°C
Icmt [2] = target: T1, Icmt; assay: Icmt scintillation proximity assay; type: biochemical; conditions: initial SPA screen, 50 μM
Icmt [3] = target: T1, Icmt; assay: Preliminary screen for Icmt substrate activity; type: biochemical

T1 sequence (O60725 whole entry, the tested form may be a part): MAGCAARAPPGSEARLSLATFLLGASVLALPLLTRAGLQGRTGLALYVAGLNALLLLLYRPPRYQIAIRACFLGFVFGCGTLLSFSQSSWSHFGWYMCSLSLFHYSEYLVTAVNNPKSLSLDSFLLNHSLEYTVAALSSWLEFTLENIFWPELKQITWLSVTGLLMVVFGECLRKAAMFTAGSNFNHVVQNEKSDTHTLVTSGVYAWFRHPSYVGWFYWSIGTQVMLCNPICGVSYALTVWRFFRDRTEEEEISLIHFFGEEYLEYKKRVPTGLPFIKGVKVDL

Compound: CCCCCCCCn1cc(CC(N)=O)c2cc(-c3cccc(C)c3)ccc21 [cysmethynil]
- activity against cancer cells (cancer cells): exhibits activity against cancer cells

Compound: CCCCCC12CCC(C(=O)N[C@@H](CSC/C=C(\C)CC/C=C(\C)CCC=C(C)C)C(=O)O)(CC1)CC2 [4d, N-4-pentylbicyclo[2.2.2]octane-1-carbonyl-L-cysteine[S-(2E,6E)-3,7,11-trimethyldodeca-2,6,10-trienyl]-OH]
- IC50 (Icmt [1]; VDA): 16.7 µM

Compound: CC(C)=CCC/C(C)=C/CC/C(C)=C/CSC[C@H](NC(=O)[C@]12CCC(CC1=O)C2(C)C)C(=O)O [4e, N-(1S)-7,7-dimethyl-2-oxobicyclo[2.2.1]heptane-1-carbonyl-L-cysteine[S-(2E,6E)-3,7,11-trimethyldodeca-2,6,10-trienyl]-OH]
- IC50 (Icmt [1]; VDA): 15.6 µM

Compound: CC(C)=CCC/C(C)=C/CC/C(C)=C/CSC[C@H](NC(=O)C[C@H]1C[C@H]2CCC1C2)C(=O)O [4c, N-2-((2R,4S)-bicyclo[2.2.1]heptan-2-yl)acetyl-L-cysteine[S-(2E,6E)-3,7,11-trimethyldodeca-2,6,10-trienyl]-OH]
- activity in the SPA (Icmt [2]): inactive

Compound: CC(C)=CCC/C(C)=C/CC/C(C)=C/CSC[C@H](NC(=O)Cc1cccc2ccccc12)C(=O)O [4g, N-1-napthylacetylcarbonyl-L-cysteine[S-(2E,6E)-3,7,11-trimethyldodeca-2,6,10-trienyl]-OH]
- activity in the SPA (Icmt [2]): inactive

Compound: CC(C)=CCC/C(C)=C/CC/C(C)=C/CSC[C@H](NC(=O)C12CC3CC(CC1C3)C2)C(=O)O [4b, N-3-noradamantanecarbonyl-L-cysteine[S-(2E,6E)-3,7,11-trimethyldodeca-2,6,10-trienyl]-OH]
- IC50 (Icmt [1]; VDA): 16.7 µM

Compound: CC(C)=CCC/C(C)=C/CC/C(C)=C/CSC[C@H](NC(=O)CCS(=O)(=O)c1ccccc1)C(=O)O [5l, N-3-(phenylsulfonyl)propanoyl-L-cysteine[S-(2E,6E)-3,7,11-trimethyldodeca-2,6,10-trienyl]-OH]
- Icmt substrate activity (Icmt [3]): more efficient Icmt substrates than the prototypical N-acetylfarnesylcysteine

Compound: CC(C)=CCC/C(C)=C/CC/C(C)=C/CSC[C@H](NC(=O)c1ccccc1-c1ccccc1)C(=O)O [4f, N-2-phenylbenzoyl-L-cysteine[S-(2E,6E)-3,7,11-trimethyldodeca-2,6,10-trienyl]-OH]
- IC50 (Icmt [1]; VDA): 12.1 µM

Compound: CC(C)=CCC/C(C)=C/CC/C(C)=C/CSC[C@H](NC(=O)CN1C(=O)OC[C@@H]1c1ccccc1)C(=O)O [5f, N-2-((S)-4-phenyl-2-oxo-oxazolidin-3-yl)acetyl-L-cysteine[S-(2E,6E)-3,7,11-trimethyldodeca-2,6,10-trienyl]-OH]
- Icmt substrate activity (Icmt [3]): more efficient Icmt substrates than the prototypical N-acetylfarnesylcysteine

Compound: CC(C)=CCC/C(C)=C/CC/C(C)=C/CSC[C@H](NC(=O)c1ccccc1Oc1ccccc1)C(=O)O [5e, N-(2-oxyphenyl)benzoyl-L-cysteine[S-(2E,6E)-3,7,11-trimethyldodeca-2,6,10-trienyl]-OH]
- inhibition of Icmt (methylation of AFC) (Icmt [1]; VDA, at a concentration of 10 μM): ~80%
- IC50 (Icmt [1]; VDA): 4.3 µM

Compound: CC(C)=CCC/C(C)=C/CC/C(C)=C/CSC[C@H](NC(=O)CO[C@@H]1C[C@H](C)CC[C@H]1C(C)C)C(=O)O [4h, N-2-((1R,2S,5R)-2-isopropyl-5-methylcyclohexyloxy)acetyl-L-cysteine[S-(2E,6E)-3,7,11-trimethyldodeca-2,6,10-trienyl]-OH]
- IC50 (Icmt [1]; VDA): 22.9 µM

Compound: N-2-(aminophenyl)benzoyl-L-cysteine[S-(2E,6E)-3,7,11-trimethyldodeca-2,6,10-trienyl]-OH [5h]
- Icmt inhibitory potency (in words) (Icmt [1]): potent analog

Compound: CC(C)=CCC/C(C)=C/CC/C(C)=C/CSC[C@H](NC(=O)CC12CC3CC(CC(C3)C1)C2)C(=O)O [4a, N-1-adamantylacetylcarbonyl-L-cysteine[S-(2E,6E)-3,7,11-trimethyldodeca-2,6,10-trienyl]-OH]
- IC50 (Icmt [1]; VDA): 18.8 µM

Compound: CCCCCCCCC(=O)N[C@@H](CSC/C=C(\C)CC/C=C(\C)CCC=C(C)C)C(=O)O [4i, N-octylcarbonyl-L-cysteine[S-(2E,6E)-3,7,11-trimethyldodeca-2,6,10-trienyl]-OH]
- activity in the SPA (Icmt [2]): inactive

Compound: CC(C)=CCC(=CCSC[C@H](NC(=O)c1ccccc1Oc1ccccc1)C(=O)O)CCc1ccc(-c2ccccc2)cc1 [compound 7, N-2-Phenoxybenzoyl-S-3-(3-methyl-but-2-enyl)-5-(4-biphenyl)pent-2-enyl-L-cysteine]
- Icmt substrate activity (Icmt [3]): no substrate activity
